Target: T1, K-Ras G12D (Homo sapiens, UniProt P01116, G12D)
T1 construct: AGS (Cobioer, CBP60476) cell lines which harbor KRAS G12D mutation; host or cells: AGS
Assay: p-ERK Cellular 2-Plate Assay (Biological Example 2)
Assay type: cell-based
Conditions: AGS cells (KRAS G12D), 3 h treatment, AlphaLISA p-ERK1/2, 2-plate; Biological Example 2 (unmarked values); read-out: AGS PERK EC50
Experimental: The ability of the compound of Formula (IIA′), (II′), or (II) or a pharmaceutically acceptable salt thereof (test compound) to inhibit K-Ras G12D activity was tested using AGS (Cobioer, CBP60476) cell lines which harbor KRAS G12D mutation as described below.
AGS (Cobioer, CBP60476) were seeded in 384-well plates and cultured overnight (10.000 cells per well 40 μl total volume). The following morning, cells were treated with test compound, with staring concentration at 10 μM and 3-fold dilution down to 0.5 nM for 3 h at 37° C., DMSO treatment served as control. p-ERK was then measured using AlphaLISA SureFire Ultra p-ERK1/2 (Thr202/Tyr204) Assay Kit (Perkin Elmer, cat #ALSU-PERK) following the manufacturer's instruction as follows.
Briefly, the culture medium was removed and 20 μl 1× lysis buffer was added to each well, followed by 30 minutes incubation on a plate shaker at room temperature. Then 10 μl of lysate was transferred to a white 384-well plate. Acceptor mixture was prepared according to manufacturer's instruction. 5 μl acceptor mixture was added to the cell lysate and the plate was wrapped with foil, spun at 500 rpm for 10 s, and incubated at RT for 60 min. Donor mixture was prepared under subdued light. 5 μl donor mixture was added to the cell lysate and the plate was spun at 500 rpm for 10s and incubated at RT for another 60 min. in the dark. Signal was then measured on a EnVision 2105 multimode plate reader. Percentage inhibition was calculated with DMSO treatment as 100% of signal, and IC50 was calculated by XLfit 5.5.x.

T1 sequence (P01116 1-188 isoform P01116-2 G12D): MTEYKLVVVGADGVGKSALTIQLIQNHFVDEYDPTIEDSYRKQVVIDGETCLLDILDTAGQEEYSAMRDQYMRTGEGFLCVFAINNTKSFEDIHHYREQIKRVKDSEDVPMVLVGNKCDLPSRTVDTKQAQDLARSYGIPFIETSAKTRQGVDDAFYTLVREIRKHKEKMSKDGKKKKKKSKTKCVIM

Structure (SMILES) | EC50 [nM]
C#Cc1cccc2cc(O)cc(-c3ncc4c(N5CC6CCC(C5)N6)nc(OC[C@]56CCCN5[C@H]5c7ccnn7CC5C6)nc4c3F)c12 (mixture of isomers) [Example 37] | 6.6
C#Cc1cccc2cc(O)cc(-c3ncc4c(N5CC6CCC(C5)N6)nc(OC[C@]56CCCN5[C@H]5c7cccnc7OCC5C6)nc4c3F)c12 (mixture of isomers) [Example 38] | 1.1
C#Cc1cccc2cc(O)cc(-c3ncc4c(N5C[C@H]6CC[C@@H](C5)N6)nc(OCC56CCCN5CC(=CC(F)F)C6)nc4c3F)c12 (stereo partly drawn) [Example 3, 4-(4-((1R,5S)-3,8-diazabicyclo[3.2.1]octan-3-yl)-2-((2-(2,2-difluoroethylidene)-tetrahydro-1H-pyrrolizin-7a(5H)-yl)methoxy)-8-fluoropyrido[4,3-d]pyrimidin-7-yl)-5-ethynylnaphthalen-2-ol] | 1.5
C#Cc1cccc2cc(O)cc(-c3ncc4c(N5C[C@H]6CC[C@@H](C5)N6)nc(OCC56CCCN5c5ccccc5C6)nc4c3F)c12 (stereo partly drawn) [Example 5, 4-(4-((1R,5S)-3,8-diazabicyclo[3.2.1]octan-3-yl)-2-((2,3-dihydro-1H-pyrrolo[1,2-a]-indol-9a(9H)-yl)methoxy)-8-fluoropyrido[4,3-d]pyrimidin-7-yl)-5-ethynylnaphthalen-2-ol] | 320
C#Cc1cccc2cc(O)cc(-c3ncc4c(N5C[C@H]6CC[C@@H](C5)N6)nc(OCC56CCCN5Cc5ccccc56)nc4c3F)c12 (stereo partly drawn) [Example 6, 4-(4-((1R,5S)-3,8-diazabicyclo[3.2.1]octan-3-yl)-2-((2,3-dihydro-1H-pyrrolo[2,1-a]-isoindol-9b(5H)-yl)methoxy)-8-fluoropyrido[4,3-d]pyrimidin-7-yl)-5-ethynylnaphthalen-2-ol] | 0.6
C#Cc1cccc2cc(O)cc(-c3ncc4c(N5CC6C=C(C#N)C(C5)N6)nc(OCC56CCCN5CCC6)nc4c3F)c12 (centres unmarked) [Example 7, 3-(7-(8-ethynyl-3-hydroxynaphthalen-1-yl)-8-fluoro-2-((tetrahydro-1H-pyrrolizin-7a(5H)-yl)methoxy)pyrido[4,3-d]pyrimidin-4-yl)-3,8-diazabicyclo[3.2.1]oct-6-ene-6-carbonitrile] | 260
C#Cc1cccc2cc(O)cc(-c3ncc4c(N5CC6NC(C5)C5CC65)nc(OCC56CCCN5CCC6)nc4c3F)c12 (centres unmarked) [Example 9, 5-ethynyl-4-(8-fluoro-2-((tetrahydro-1H-pyrrolizin-7a(5H)-yl)methoxy)-4-(7,9-diazatricyclo[3.3.1.02,4]nonan-7-yl)pyrido[4,3-d]pyrimidin-7-yl)naphthalen-2-ol] | 253

These reach a lower EC50. Values come first.

EC50 [nM] | Structure (SMILES)
0.48 | C#Cc1cccc2cc(O)cc(-c3ncc4c(N5CC6CCC(C5)N6)nc(OC[C@@]56CCCN5[C@@H]5CCOCC5C6)nc4c3F)c12 (mixture of isomers) [Example 23]
0.25 | C#Cc1cccc2cc(O)cc(-c3ncc4c(N5CC6CCC(C5)N6)nc(OC[C@]56CCCN5[C@H]5c7ccccc7OCC5C6)nc4c3F)c12 (mixture of isomers) [Example 39]
0.2 | C#Cc1cccc2cc(O)cc(-c3ncc4c(N5C[C@H]6CC[C@@H](C5)N6)nc(OCC56CCCN5CC(=C)C6)nc4c3F)c12 (stereo partly drawn) [Example 1, 4-(4-((1R,5S)-3,8-diazabicyclo[3.2.1]octan-3-yl)-8-fluoro-2-((2-methylene-tetrahydro-1H-pyrrolizin-7a(5H)-yl)methoxy)pyrido[4,3-d]pyrimidin-7-yl)-5-ethynyl-naphthalen-2-ol]
0.2 | C#Cc1cccc2cc(O)cc(-c3ncc4c(N5C[C@H]6CC[C@@H](C5)N6)nc(OCC56CCCN5CC(=CF)C6)nc4c3F)c12 (stereo partly drawn) [Example 2, 4-(4-((1R,5S)-3,8-diazabicyclo[3.2.1]octan-3-yl)-8-fluoro-2-((2-(fluoro-methylene)tetrahydro-1H-pyrrolizin-7a(5H)-yl)methoxy)pyrido[4,3-d]pyrimidin-7-yl)-5-ethynylnaphthalen-2-ol]

— US20240166669A1, “QUINAZOLINE AMINE DERIVATIVES AS KRAS INHIBITORS” (Nikang Therapeutics, Inc., priority 2021, published 2024)
